In patent US20190125735A1, “INHIBITION OF P38 MAPK FOR THE TREATMENT OF CANCER” (Board of Regents, The University of Texas System, priority 2015, published 2019):

Experiments:
[1] = system: HMLE-Snail, HMLE-Twist, MDA-MB-231 and SUM159 cells; assay: FACS CD44high/CD24low of mesenchymal mammary cells; type: cell-based, human; settings: relative to vehicle-treated cells
Method: It was next ascertained whether p38 inhibition compromises the maintenance of the established EMT phenotype.
Quantification of invadopodia (Eckert et al., 2011), scratch/wound-healing assays (Sarkar et al., 2015) fluorescence-activated cell sorting (FACS), and sphere-formation assays (Mani et al., 2008) were conducted as described previously.

[2] = system: BCR-ABL+ mouse ALL cells seeded on MSCs; assay: Post-screening leukemic cell cluster formation underneath pretreated MSCs; type: cell-based; settings: imatinib 5 μM with SB203580 20 μM or dexamethasone 50 nM, 4 days + 24 hours
Excerpt: Phase-contrast images of co-cultured MSCs and ALL cells were obtained using an Axio Observer.Z1 microscope, an AxioCam MR camera, and AxioVision software (Zeiss, Oberkochen, Germany). For screening, a cluster was defined as a group of more than five leukemic cells under the MSCs. The total number of leukemic cell clusters was the average number of clusters from three different fields (10× objective). For post-screening experiments, a cluster was defined as a group of more than 10 leukemic cells under the MSCs. The total number of leukemic cell clusters was the average number of clusters from 10 different fields (10× objective).

FOXC2 = FOXC2 transcript levels by qRT-PCR; type: cell-based, human; settings: treated vs vehicle
Method: qRT-PCR was performed using SYBR Green (Applied Biosystems, Waltham, Mass., USA) for mRNAs and Taqman (Applied Biosystems) for microRNAs as described previously (Hollier et al., 2013).

DU145 cells [3] = assay: Wound healing assay, DU145 cells; type: cell-based, human; settings: DU145, 5 μM, 7 days
Method: (§1) Immunoblotting, Immunofluorescence, RTPCR, wound healing- and tumorsphere assays were performed as previously described (Sarkar et al., 2015). Cell viability (MTS) was assessed using the CellTiter96 Aqueous One-Solution Cell Proliferation Assay kit (Promega).

BCR-ABL+ mouse ALL cells [4] = settings: MSC co-culture
Method: Leukemic cell apoptosis was analyzed by flow cytometry using BD LSRFortessa or Accuri C6 flow cytometer (BD Biosciences) after the cells were stained with Annexin V (BD Biosciences, San Jose, Calif.). Data were analyzed by FlowJo software (Ashland, Oreg.).

DU145 cells [5] = assay: Morphology and marker expression (qRTPCR, immunoblotting, IF) in DU145 cells; type: cell-based, human
Method: Cell lines: Authenticated LNCaP, DU145, and PC3 cells were procured from ATCC and cultured in RPMI with 10% fetal bovine serum (FBS) with penicillin/streptomycin. Cells overexpressing EMT transcription factors and shRNA were also cultured in the same media. HEK293T cells were cultured in DMEM with 10% FBS and penicillin/streptomycin. All cell lines used for this study were recently confirmed negative for mycoplasma contamination.
as §1

MCF10A cells = assay: TGFβ1-induced EMT in MCF10A cells, immunoblotting; type: cell-based, human; settings: TGFβ1-treated MCF10A, concomitant SB203580, 3 days
Method: To ascertain whether inhibiting p38 impedes the initiation of EMT, two dynamic models of EMT induction were utilized. First, MCF10A immortalized human mammary epithelial cells were treated with TGFβ1 which elicits EMT. […] Second, an inducible EMT system was used wherein a fusion protein, comprising the EMT-inducing transcription factors Snail or Twist and the estrogen-binding domain of the estrogen receptor (ER), is stably expressed in epithelial HMLE cells (HMLE-Snail-ER, HMLE-Twist-ER). Addition of the ER-ligand tamoxifen (4-OHT) promotes nuclear translocation of the Snail-ER and Twist-ER proteins and elicits EMT. […] Similarly, p38 shRNA abolished the capacity of HMLE-Twist-ER cells to undergo EMT (FIG. 4E, compare lanes 4 to 8) and to form spheres (FIG. 16F) in response to 4-OHT treatment.
Immortalized human mammary epithelial (HMLE) cells expressing empty vector (pWZL), Snail, Twist, Goosecoid (GSC), or an activated form of TGFβ1, V12H-Ras-transformed HMLE (HMLER) and HMLER-FOXC2 cells were maintained as previously described (Elenbaas et al., 2001) For 4-hydroxy-tamoxifen (4-OHT) treatment, HMLE-Snail-ER or HMLE-Twist-ER cells were exposed to 20 nM 4-OHT for the indicated number of days. MCF7, MDA-MB-231 and SUM159 human breast cancer cells and the 4T1 mouse mammary carcinoma cells were cultured as described. […]

MDA-MB-231 cells = assay: Experimental metastasis model, MDA-MB-231 cells via tail vein of NOD/SCID mice; type: in vivo, mouse; settings: daily injection beginning 48 h post-implantation
Excerpt: Since many breast cancer patients harbor occult micrometastases, at the time of diagnosis, and metastasis is often attributed to the systemic dissemination of tumor cells before or during surgical resection of the primary tumor (Pantel et al., 1999; Fehm et al., 2008), it was examined whether p38 inhibition could also prevent colonization and progression to macrometastasis. For this, an experimental metastasis model was employed, which circumvents the early steps of the metastatic cascade. Luciferase-labeled MDA-MB-231 cells were injected via the tail vein of NOD/SCID mice, and the emergence of lung metastases were monitored using bioluminescence. […] To eliminate the possibility of “off-target” effects, mice were intravenously injected with MDA-MB-231 cells expressing either control shRNA or p38 shRNA.
NOD/SCID and BALB/c mice were purchased from the Jackson Laboratory (Bar Harbor, Me., USA). […] Mice were assessed weekly for tumor growth and metastasis via subcutaneous injection of D-Luciferin (150 mg/kg; Caliper LifeSciences, Hopkinton, Mass., USA) and bioluminescent imaging (IVIS imaging system 200 series; Xenogen Corporation, PerkinElmer, Waltham, Mass., USA). Primary tumor size was measured with a caliper as the product of two perpendicular diameters (mm^2). […]

mouse BCR-ABL+ ALL cells = assay: BCR-ABL+ ALL model in NOD-SCID mice; type: in vivo; settings: dasatinib 10 mg/kg oral, dexamethasone 1 mg/kg oral, SB203580 40 mg/kg i.p.; treatment from day 5
Excerpt: Leukemia progression was monitored by both bioluminescence imaging and quantifying mCherry+ ALL cells in peripheral blood samples by flow cytometry. […] Non-obese diabetic severe combined immunodeficient (NOD-SCID) mice were housed under high-barrier conditions in the Department of Veterinary Medicine and Surgery at MD Anderson. To generate the in vivo leukemia model, six to eight weeks old NOD-SCID mice were intravenously injected with luciferase- and mCherry-expressing BCR-ABL+ mouse leukemic cells (2×10^6 cells); engraftment of the transplanted cells was confirmed by bioluminescence imaging. For bioluminescence imaging, each mouse was intraperitoneally injected with D-Luciferin (150 mg/kg) and imaged using the IVIS Lumina imaging system (PerkinElmer).
Leukemia treatment started 5 days after transplantation. […] Treatment was continued until mice were succumbed to disease.
Bone marrow samples from the mice were harvested 4 days after initiating the drug treatment. […] Peripheral blood specimens were directly harvested from mice tail tips into PBS supplemented with ethylenediaminetetraacetic acid (2 mM). Red blood cells were subjected to lysis and were neutralized with 20% fetal bovine serum supplemented with alpha minimum essential medium. mCherry+ leukemic cells in the peripheral blood were detected by flow cytometry analysis after red blood cells were lysed.

DU145 cells [6] = assay: MTS cell survival assay, DU145 cells; type: cell-based, human
Method: as §1

BCR-ABL+ mouse ALL cells [7] = settings: MSC co-culture; remark: listed apart in the source
Method: To measure cell proliferation, co-cultures of MSCs and luciferase-labeled leukemic cells were mixed with D-Luciferin (Biosynth, Itasca, Ill.) to a final concentration of 0.5 mg/mL. Samples were incubated at room temperature for 1 minute and were imaged with the IVIS Lumina imaging system (PerkinElmer, Waltham, Mass.).

C[S+]([O-])c1ccc(-c2nc(-c3ccc(F)cc3)c(-c3ccncc3)[nH]2)cc1 (centres unmarked) [SB203580, 4-(4-Fluorophenyl)-2-(4-methylsulfinylphenyl)-5-(4-pyridyl) 1H-imidazole]
Percentage of cells displaying the CD44^high/CD24^low antigenic profile [1]: substantially reduced | Leukemic cell clusters underneath imatinib-pretreated MSCs [2]: completely prevented leukemic cell cluster formation | FOXC2 transcript levels (FOXC2): neither SB203580 nor p38 shRNA had a discernible effect on FOXC2 transcript levels | Migratory potential (DU145 cells [3]): significant reduction in migratory potential | Apoptosis of leukemic cells (BCR-ABL+ mouse ALL cells [4]): did not affect proliferation or apoptosis of leukemic cells | AR and PSA expression (DU145 cells [5]; DU145, 5 μM, 7 days): restoration of AR and PSA expression | Expression of Bmi1 and Sox2 (DU145 cells [5]; DU145, 5 μM, 7 days): significant reduction | FOXC2 expression (DU145 cells [5]; DU145, 5 μM, 7 days): dramatic loss in FOXC2 expression | Morphology / phenotype (DU145 cells [5]; DU145, 5 μM, 7 days): acquisition of an epithelial phenotype | Expression of AR, PSA and E-cadherin over time (qRTPCR) (DU145 cells [5]; DU145, days 0-7 after treatment): consistently increased right after 48 hours, but reached highest levels at day 7 | FOXC2, mesenchymal and epithelial markers (MCF10A cells): suppresses the upregulation of FOXC2 and mesenchymal markers (fibronectin, vimentin) and prevents downregulation of the epithelial marker E-cadherin | Event-free survival (MDA-MB-231 cells): extended event-free survival | Metastatic burden (lung) (MDA-MB-231 cells): significantly reduced the metastatic burden | Leukemia progression and survival (therapeutic efficacy) (mouse BCR-ABL+ ALL cells): did not slow leukemia progression or prolong survival | Sensitivity of cells to Docetaxel (cell survival) (DU145 cells [6]; DU145, SB203580 pre-treatment then co-treatment with SB203580 and Docetaxel): significantly resensitized | Sensitivity of cells to Enzalutamide (cell survival) (DU145 cells [6]; DU145, SB203580 pre-treatment then co-treatment with SB203580 and Enzalutamide): significantly resensitized | Proliferation of leukemic cells (BCR-ABL+ mouse ALL cells [7]): did not affect proliferation or apoptosis of leukemic cells
